From ChEMBL document CHEMBL3124851, “A perspective on natural products research and ethnopharmacology in Mexico: the eagle and the serpent on the prickly pear cactus” (J Nat Prod, 2014)

Experiments:
Rattus norvegicus = organism: Rattus norvegicus; assay: Increase in dopamine level in rat striatum by microdialysis assay (reference value: 4.2 nM); format: functional
Mus musculus [1] = assay: Antinociceptive activity in mouse at 3 mg/kg, ip by writhing test; format: functional; settings: route intraperitoneal
[2] = Stimulation of dopaminergic neurons in rat posterior ventral tegmental area relative to ethanol; format: functional
Ileum = assay: Spasmolytic activity in guinea pig ileum; format: functional, tissue-based; settings: Cavia porcellus
Mus musculus [3] = assay: Antinociceptive activity in mouse at 2 mg/kg, ip by writhing test; format: functional; settings: route intraperitoneal
D(3) dopamine receptor = D(3) dopamine receptor (Homo sapiens, UniProt P35462); assay: Agonist activity at dopamine D3 receptor (unknown origin)
Sequence of D(3) dopamine receptor (P35462 whole entry): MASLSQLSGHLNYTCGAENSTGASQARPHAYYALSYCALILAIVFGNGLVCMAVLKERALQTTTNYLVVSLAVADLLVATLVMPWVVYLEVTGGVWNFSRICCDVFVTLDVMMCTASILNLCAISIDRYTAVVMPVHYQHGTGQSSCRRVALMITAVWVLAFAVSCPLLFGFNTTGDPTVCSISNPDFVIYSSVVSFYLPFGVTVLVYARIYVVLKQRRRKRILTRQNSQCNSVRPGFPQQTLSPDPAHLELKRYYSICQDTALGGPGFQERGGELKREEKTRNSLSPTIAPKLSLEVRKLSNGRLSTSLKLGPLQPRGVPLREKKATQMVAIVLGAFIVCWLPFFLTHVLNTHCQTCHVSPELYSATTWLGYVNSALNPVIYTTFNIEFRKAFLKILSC

Compound `C[C@H]1NCCc2cc(O)c(O)cc21` has an Activity (Rattus norvegicus) of 300 nM.
Work on `C[C@H]1[C@H](C)CC[C@]2(C(=O)O)CC[C@]3(C)C(=CC[C@@H]4[C@@]5(C)CC[C@H](O)C(C)(C)[C@@H]5CC[C@]43C)[C@H]12` [URSOLIC ACID] yielded an Activity (Mus musculus [1]) of 50%.
For `CC1NCCc2cc(O)c(O)cc21` (configuration not stated), the “fold change (FC)” value [2] was 1000000.
`COc1ccc(-c2cc(=O)c3c(O)cc(O)cc3o2)cc1` [ACACETIN] gave an IC50 (Ileum) of 1100 nM and an Activity (Mus musculus [3]) of 50%.
Work on `C[C@@H]1NCCc2cc(O)c(O)cc21` yielded a Ki (D(3) dopamine receptor) of 500 nM and an Activity (Rattus norvegicus) of 21.5 nM.
